Laboratory results taken from US5508311A, “Aliphatic propargylamines as selective MAO-B inhibitors and as neuroprotective agents” (University of Saskatchewan, priority 1993, dated 1996).
Where a name gives a salt, the structure may show the parent alone. Read-outs that look alike come from different tables or passages of the source.

Columns and labels:
[1] = reported; cited from earlier work
monoamine oxidase = assay: Inhibition of rat liver monoamine oxidase deamination of dopamine (DA, mixed-type MAO A and B substrate) in vitro; format: biochemical; conditions: substrate DA (5 × 10^-4 M), average of at least 3 independent experiments
Description: (§1) The aliphatic propargylamine inhibitors (from 1×10^-10 M to 1×10^-4 M) were preincubated with the MAO for 20 min. at ambient room temperature and then the residual enzyme activities were determined by addition of the substrates, followed by further incubation at 37° C. for 30 min. The enzymatic reactions were terminated by the addition of citric acid and the aldehyde products were extracted with toluene: ethyl acetate (1:1, v/v) and the radio-activities assessed in a scintillation counter.

Parkinson's disease = conditions: Deprenyl alone; cited from earlier work
MAO-A [2] = molecular target: T1, MAO-A (Mus musculus, UniProt Q64133); assay: in vivo; conditions: ip, read-out: 5-HT ID50
T1 construct: MAO activities in the mouse brain after; from tissue
T1 sequence (Q64133 1-526): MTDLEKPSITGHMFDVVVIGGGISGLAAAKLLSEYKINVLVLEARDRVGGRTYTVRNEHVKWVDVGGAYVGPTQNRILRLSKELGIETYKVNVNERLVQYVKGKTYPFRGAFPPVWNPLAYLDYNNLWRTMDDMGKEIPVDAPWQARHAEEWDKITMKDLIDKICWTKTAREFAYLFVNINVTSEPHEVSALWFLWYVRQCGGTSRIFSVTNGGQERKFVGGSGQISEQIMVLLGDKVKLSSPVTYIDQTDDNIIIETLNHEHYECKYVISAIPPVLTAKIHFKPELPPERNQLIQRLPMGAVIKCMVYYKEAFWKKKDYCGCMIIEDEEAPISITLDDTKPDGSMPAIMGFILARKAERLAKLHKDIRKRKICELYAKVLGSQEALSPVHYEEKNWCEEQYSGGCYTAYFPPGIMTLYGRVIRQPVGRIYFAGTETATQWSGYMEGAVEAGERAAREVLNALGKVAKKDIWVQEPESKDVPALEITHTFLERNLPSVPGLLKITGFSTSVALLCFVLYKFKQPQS
Description: (§2) Albino Swiss mice were used in this study. The animals were injected intraperitoneally with different doses of the aliphatic propargylamines in 100 μL saline.
(§3) 0.5, 1, 2, 5, 10, 20, 50, 100 mg/Kg. Striata were dissected from the brai
(§4) two hours after i.p. administration of the drugs. MAOA and MAOB activitie
(§5) were determined immediately. The values were estimated from doseresponse

dopamine neurons [3] = conditions: animal study (Tatton); cited from earlier work
MAO-B [4] = molecular target: T2, MAO-B (Mus musculus, UniProt Q8BW75); assay: in vivo; format: in vivo; conditions: for ED50: read-out: PE ID50; for Ratio MAO-A/MAO-B: 120 min
T2 construct: MAO activities in the mouse brain after; from tissue
T2 sequence (Q8BW75 1-520): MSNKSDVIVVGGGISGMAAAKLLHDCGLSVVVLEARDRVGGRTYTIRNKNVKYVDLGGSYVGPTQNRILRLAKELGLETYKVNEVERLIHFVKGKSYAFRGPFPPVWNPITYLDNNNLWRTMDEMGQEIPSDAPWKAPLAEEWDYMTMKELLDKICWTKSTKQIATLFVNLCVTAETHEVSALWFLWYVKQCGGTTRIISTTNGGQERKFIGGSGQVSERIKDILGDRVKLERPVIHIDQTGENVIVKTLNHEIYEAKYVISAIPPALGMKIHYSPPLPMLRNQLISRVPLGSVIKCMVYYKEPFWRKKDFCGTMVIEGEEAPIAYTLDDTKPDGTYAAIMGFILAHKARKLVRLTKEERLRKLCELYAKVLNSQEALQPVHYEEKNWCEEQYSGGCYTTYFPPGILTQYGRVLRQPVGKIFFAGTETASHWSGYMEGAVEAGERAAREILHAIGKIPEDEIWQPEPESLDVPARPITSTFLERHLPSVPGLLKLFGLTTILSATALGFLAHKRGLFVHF
Description: as §2, §3, §4, §5

MAO-B [5] = molecular target: T3, MAO-B (Rattus norvegicus, UniProt P19643); assay: biochemical; format: biochemical; conditions: for IC50: read-out: PE IC50
T3 sequence (P19643 1-520): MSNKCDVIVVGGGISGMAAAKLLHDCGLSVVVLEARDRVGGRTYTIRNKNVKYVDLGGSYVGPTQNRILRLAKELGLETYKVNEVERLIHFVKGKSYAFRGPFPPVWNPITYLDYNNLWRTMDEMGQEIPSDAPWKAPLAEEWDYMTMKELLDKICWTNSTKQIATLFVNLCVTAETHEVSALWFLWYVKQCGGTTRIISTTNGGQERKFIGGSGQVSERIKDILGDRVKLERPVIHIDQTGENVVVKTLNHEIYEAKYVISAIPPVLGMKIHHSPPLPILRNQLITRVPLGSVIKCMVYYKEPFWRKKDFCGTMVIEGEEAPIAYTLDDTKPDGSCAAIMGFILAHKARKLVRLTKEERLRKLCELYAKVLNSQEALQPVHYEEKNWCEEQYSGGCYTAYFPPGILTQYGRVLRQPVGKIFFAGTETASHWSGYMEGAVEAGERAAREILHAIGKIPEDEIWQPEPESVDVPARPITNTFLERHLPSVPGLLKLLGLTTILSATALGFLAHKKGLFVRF
Description: as §1

MAO-A [6] = molecular target: T4, MAO-A (Rattus norvegicus, UniProt P21396); assay: biochemical; format: biochemical; conditions: substrate 5-HT (5 × 10^-4 M); rat liver MAO, in vitro; average of at least 3 independent experiments
T4 sequence (P21396 1-526): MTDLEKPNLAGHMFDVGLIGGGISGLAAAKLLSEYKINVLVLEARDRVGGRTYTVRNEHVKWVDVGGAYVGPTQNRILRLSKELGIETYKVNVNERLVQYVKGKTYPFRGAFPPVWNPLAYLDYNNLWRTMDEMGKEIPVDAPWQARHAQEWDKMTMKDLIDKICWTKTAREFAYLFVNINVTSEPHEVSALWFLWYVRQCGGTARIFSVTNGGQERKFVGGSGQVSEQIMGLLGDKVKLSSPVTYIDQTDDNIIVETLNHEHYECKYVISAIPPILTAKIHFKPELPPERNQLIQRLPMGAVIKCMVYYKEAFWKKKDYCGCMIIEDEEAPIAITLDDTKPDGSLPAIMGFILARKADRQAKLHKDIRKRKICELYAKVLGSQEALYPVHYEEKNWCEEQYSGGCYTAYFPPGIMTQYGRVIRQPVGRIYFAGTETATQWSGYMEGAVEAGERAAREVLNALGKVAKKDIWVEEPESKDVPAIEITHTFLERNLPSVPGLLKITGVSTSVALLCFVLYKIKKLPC
Description: as §1

MAO-A [7] = molecular target: T1, MAO-A; format: in vivo
Description: (§6) Table 3 indicates the MAO activities in the mouse brain following oral administration of the aliphatic propargylamines.
(§7) of each compound. Striata were dissected from the brain two hours after
(§8) the administration of the drugs. MAOA and MAOB activities were determined

MAO-B [8] = molecular target: T2, MAO-B; assay: MAO-B activity in the mouse brain after oral administration (substrate PE); format: in vivo; conditions: 2 hours; for ED50: mouse, oral, average of 5 animals per dose, estimated from dose response curves, read-out: Inhibition of MAO-B activity, dose response (ID50); for Relative activity PE: oral 10 mg/Kg, PE (1.9 × 10^-5 M), mean ± standard error, saline = 100
Description: as §6, §7, §8
Striata were dissected from the brain two
hours after oral administration of the drugs. MAOB activities were then
determined immediately. The values were estimated from doseresponse

[9] = mouse, in vivo
From the text: The acute toxicity of these compounds is quite low. […]. The aliphatic side-chains of these aliphatic propargyl compounds are similar to those that exist in endogenous lipids and fatty acids and such aliphatic chains are readily oxidized in vivo. […]

[10] = human, in vivo; cited from earlier work
noradrenaline neurons = assay: Protection of noradrenaline neurons against DSP-4 induced neurotoxicity in the mouse brain; format: in vivo; conditions: Experiment II, pretreatment 10 mg/Kg i.p., mean ± S.E.
Description: The analyses of DSP-4-induced neurotoxic effects were conducted in accordance with […] and Jonsson (Eur. J. Pharmacol. 103 (1984), 269-278), hereby incorporated by reference. Mice were pretreated with M-2-PP (10 mg/Kg) and 2-HxMP (10 mg/Kg) or saline as control via i.p. administration and one hour later challenged with a single i.p. dose of DSP-4 (DSP-4: […] One week after treatment noradrenaline content in the putamen of these mice was analyzed. The results which are shown in Table 5 are mean ± S.E. of five animals in each group.

Solubility in water = conditions: free base
dopamine neurons [11] = assay: Protection of dopamine neurons against MPTP-induced neurotoxicity in the mice brain; format: in vivo, mouse
From the text: Three days later, dopamine levels and dopamine uptake site densities (GBR bindings) were estimated.

[12] = ID50 i.p. in mice versus IC50 in vitro
[13] = mouse, ip, 2 hours after administration, […], estimated from dose response curves
[14] = 2 hours after administration, 5-HT 5 × 10^-4 M, estimated from dose response curves

C#CCN(C)[C@H](C)Cc1ccccc1 [Deprenyl]
LD50 [1]: 445 mg/kg
IC50 (monoamine oxidase): 300 nM
onset of disability in early, otherwise untreated Parkinson's disease (Parkinson's disease): can significantly delay the onset of disability
ED50 (MAO-A [2]; 2 h): 25 mg/kg
protection of dopamine neurons after MPTP washed out (dopamine neurons [3]): shown to protect dopamine neurons even after the MPTP has been completely washed out of the tissues

C#CCN(C)CCCC.Cl [Example 1-BuMP, N-(1-Butyl)-N-methylpropargylamine hydrochloride]
MAO-B ID50 (mg/Kg) / IC50 ([…] × 10^-6 M) (MAO-B [4]; [12]): 2 (mg/Kg)/(1 × 10^-6 M)
inhibition of brain MAO-B activity in vivo (in words) (MAO-B [4]; mouse, i.p., two hours after treatment): more potent than the longer chain analogs at inhibiting brain MAO-B activity
ED50 (MAO-B [4]; [13]): 2 mg/kg
Ratio MAO-A/MAO-B (MAO-B [4]; ratio of ID50 values, i.p.): 50
Ratio MAO-A/MAO-B (MAO-B [5]; ratio of IC50 values, in vitro): 100
IC50 (MAO-B [5]): 1000 nM
IC50 (MAO-A [6]): 100000 nM
Relative activity 5-HT (MAO-A [7]; oral 10 mg/Kg, 2 hours, 5-HT (5 × 10^-4 M), mean ± standard error, saline = 100): 98 ± 5%
ED50 (MAO-B [8]): 15 mg/kg
Relative activity PE (MAO-B [8]): 67 ± 9%
ED50 (MAO-A [2]; [14]): 100 mg/kg
fatality after oral administration [9]: no fatality

C#CCN(C)C(C)CC.Cl.O=C(O)C(=O)O (racemic) [Example 2-BuMP, N-(2-Butyl)-N-methylpropargylamine hydrochloride and oxalate]
fatality after oral administration [9]: no fatality

CC(C)NNC(=O)c1ccncc1 [Iproniazid]
adverse effects leading to withdrawal [10]: hepatic toxicity and occasional hypertensive crises

C#CCN(C)C(C)CCCC.Cl (stereo not drawn) [Example 2-HxMP, N-(2-Hexyl)-N-methylpropargylamine hydrochloride]
MAO-B ID50 (mg/Kg) / IC50 ([…] × 10^-6 M) (MAO-B [4]; [12]): 2 (mg/Kg)/(1 × 10^-6 M)
ED50 (MAO-B [4]; [13]): 0.2 mg/kg
Ratio MAO-A/MAO-B (MAO-B [4]; ratio of ID50 values, i.p.): 200
Ratio MAO-A/MAO-B (MAO-B [5]; ratio of IC50 values, in vitro): 1000
IC50 (MAO-B [5]): 100 nM
IC50 (MAO-A [6]): 100000 nM
Noradrenaline in putamen (noradrenaline neurons; DSP-4 50 mg/Kg, p < 0.01 vs DSP-4 (DSP-4 alone 56)): 84 ± 0.04%
Noradrenaline in putamen (noradrenaline neurons; saline, no DSP-4): 104 ± 0.05%
ED50 (MAO-B [8]): 1 mg/kg
ED50 (MAO-A [2]; [14]): 40 mg/kg

C#CCNC [MP, N-Methylpropargylamine-HCl]
DA IC50 (monoamine oxidase): inactive
PE IC50 (MAO-B [5]): inactive
5-HT IC50 (MAO-A [6]): inactive
solubility in water (Solubility in water): infinite

C#CCN(C)CCCCC.O=C(O)C(=O)O [Example M-1-PP, N-(1-Pentyl)-N-methylpropargylamine oxalate]
Dopamine (dopamine neurons [11]; 2.0 mg/Kg + MPTP): 3.1 μg/gm
Dopamine binding site (dopamine neurons [11]; 2.0 mg/Kg + MPTP): 221 pmol/mg
Dopamine (dopamine neurons [11]; 10 mg/Kg + MPTP): 9.0 μg/gm
Dopamine binding site (dopamine neurons [11]; 10 mg/Kg + MPTP): 320 pmol/mg
MAO-B ID50 (mg/Kg) / IC50 ([…] × 10^-6 M) (MAO-B [4]; mouse, in vivo, ip): 6.6
inhibition of brain MAO-B activity in vivo (in words) (MAO-B [4]; mouse, in vivo, ip): more potent than the longer chain analogs at inhibiting brain MAO-B activity
Ratio MAO-A/MAO-B (MAO-B [4]; mouse, in vivo, ip): 50
ED50 (MAO-B [4]; mouse, ip, 2 h): 2 mg/kg
Ratio MAO-A/MAO-B (MAO-B [5]; rat, liver mitochondrial membranes): 200
IC50 (MAO-B [5]): 400 nM
IC50 (MAO-A [6]): 100000 nM
Relative activity 5-HT (MAO-A [7]; mouse, in vivo, po, 10 mg/kg): 97 ± 13
Relative activity PE (MAO-B [8]): 72 ± 17%
ED50 (MAO-A [2]; 2 h): 100 mg/kg
fatality after oral administration [9]: no fatality
